We go through 27 molecules from patent publication US20240368104A1, “Novel Dialkoxynaphtho[2,3-C]Furan-1(3H)-One Derivatives and Pharmaceutical Composition For Preventing or Treating Respiratory Disease or SARS-COV-2 Infection Disease, Comprising Same” (priority 2021, published 2024).

Structures can show the parent of a compound that is named as a salt. Where two headings read alike, the source gives them in different places.

Data set [1] is described as follows: in vitro. The conditions noted are these: African green monkey.
For data set [2], the system named is SARS-COV-2. Briefly: microbe, parasite or virus in culture. The class given is cell-based. Details: SI (Selectivity Index, CC50/IC50): unit not given here. Conditions: for SI (Selectivity Index, CC50/IC50): SARS-COV-2, values >50 assumed to be 50; for IC50: read-out: SARS-COV-2 inhibition (IC50).
Setting [3] is: Severe acute respiratory syndrome coronavirus 2, Vero cells, 24 hours infection.
Setting [4] is: Severe acute respiratory syndrome coronavirus 2, Vero, 24 h.

The term IC50 denotes the midpoint of a concentration-inhibition curve. As for `COc1cc2c(OC)c3c(c(-c4ccc(N5CCC6(CC5)OCCO6)nc4)c2cc1OC)COC3=O` [Example 260, 4-(6-(1,4-dioxa-8-azaspiro[4.5]decan-8-yl)pyridin-3-yl)-6,7,9-trimethoxynaphtho[2,3-c]furan-1(3H)-one], the CC50 in data set [1] was > 50 µM. For the same molecule, the “SI (Selectivity Index, CC50/IC50)” value in data set [2] is reported as 1.00. Moreover, the IC50 in data set [2] (setting [3]) is > 50 µM.
On to `COc1cc2cc3c(c(-c4cnc(N5C[C@@H](C)O[C@@H](C)C5)nc4)c2cc1OC)C(=O)OC3` [Example 8, 9-(2-((2S,6R)-2,6-dimethylmorpholino)pyrimidin-5-yl)-6,7-dimethoxynaphtho[2,3-c]furan-1(3H)-one], for which, in data set [1], the CC50 was > 50 µM. Besides, in data set [2], the “SI (Selectivity Index, CC50/IC50)” value was found to be 17.39. In addition, the IC50 in data set [2] (setting [3]) stood at 2.87 µM.
Turning to `CCNc1ccc(-c2c3c(cc4cc(OC)c(OC)cc24)COC3=O)cc1` [Example 250, 9-(4-(ethylamino)phenyl)-6,7-dimethoxynaphtho[2,3-c]furan-1(3H)-one], in data set [1], the CC50 was > 50 µM. Moreover, in data set [2], the “SI (Selectivity Index, CC50/IC50)” value is on record as 10.40. The IC50 in data set [2] (setting [3]) came out at 4.81 µM.
As to `COc1cc2cc3c(c(-c4cc(C)nc5c(C(F)(F)F)cccc45)c2cc1OC)C(=O)OC3` [Example 136, 6,7-dimethoxy-9-(2-methyl-8-(trifluoromethyl)quinolin-4-yl)naphtho[2,3-c]furan-1(3H)-one], in data set [1], the CC50 is > 50 µM. The “SI (Selectivity Index, CC50/IC50)” value in data set [2] is recorded as 1.0. The IC50 in data set [2] (setting [3]) was > 50 µM.
For `COc1cc2cc3c(c(-c4cnc(N5CCCCC5CO)nc4)c2cc1OC)C(=O)OC3` (stereo not drawn) [Example 104, 9-(2-(2-(hydroxymethyl)piperidin-1-yl)pyrimidin-5-yl)-6,7-dimethoxynaphtho[2,3-c]furan-1(3H)-one hydrochloride], the CC50 in data set [1] is > 50 µM. For the same molecule, the “SI (Selectivity Index, CC50/IC50)” value in data set [2] was 1.0. In addition, the IC50 in data set [2] (setting [4]) was > 50 µM.
`COc1cc2cc3c(c(-c4ccc(N(C)C5CCCC5)nc4)c2cc1OC)C(=O)OC3` [Example 177, 9-(6-(cyclopentyl(methyl)amino)pyridin-3-yl)-6,7-dimethoxynaphtho[2,3-c]furan-1(3H)-one]: the CC50 in data set [1] is > 50 µM. In addition, in data set [2], the “SI (Selectivity Index, CC50/IC50)” value was found to be 180.12. Besides, the IC50 in data set [2] (setting [3]) stood at 0.28 µM.
For the molecule `CCN(c1ccc(-c2c3c(cc4cc(OC)c(OC)cc24)COC3=O)cn1)C1Cc2ccccc2C1` [Example 195, 9-(6-((2,3-dihydro-1H-indan-2-yl)(ethyl)amino)pyridin-3-yl)-6,7-dimethoxynaphtho[2,3-c]furan-1(3H)-one], the CC50 in data set [1] was > 50 µM. Besides, the “SI (Selectivity Index, CC50/IC50)” value in data set [2] came out at 9.50. Further, the IC50 in data set [2] (setting [3]) was determined as 5.27 µM.
Turning to `COc1cc2cc3c(c(N4CCNCC4)c2cc1OC)C(=O)OC3` [Example 128, 6,7-dimethoxy-9-(piperazin-1-yl)naphtho[2,3-c]furan-1(3H)-one], the CC50 in data set [1] is > 50 µM. In addition, in data set [2], the “SI (Selectivity Index, CC50/IC50)” value came out at 1.78. In addition, in data set [2] (setting [4]), the IC50 came to 28 µM.
Regarding `COc1cc2cc3c(c(-c4cccc(N5CCOCC5)c4)c2cc1OC)C(=O)OC3` [Example 244, 6,7-dimethoxy-9-(3-morpholinophenyl)naphtho[2,3-c]furan-1(3H)-one], the CC50 in data set [1] is > 50 µM. The “SI (Selectivity Index, CC50/IC50)” value in data set [2] stood at 1.00. Also, in data set [2] (setting [3]), the IC50 was > 50 µM.
With `COc1cc2cc3c(c(-c4ccc5c(c4)N(C)CCC5)c2cc1OC)C(=O)OC3` [Example 170, 6,7-dimethoxy-9-(1-methyl-1,2,3,4-tetrahydroquinolin-7-yl)naphtho[2,3-c]furan-1(3H)-one], the CC50 in data set [1] was > 50 µM. The “SI (Selectivity Index, CC50/IC50)” value in data set [2] came to 24.25. Further, the IC50 in data set [2] (setting [3]) turned out to be 2.06 µM.
As for `COc1cc2cc3c(c(-c4ccc5c(O)cc(C)nc5c4C)c2cc1OC)C(=O)OC3` [Example 146, 9-(4-hydroxy-2,8-dimethylquinolin-7-yl)-6,7-dimethoxynaphtho[2,3-c]furan-1(3H)-one], the CC50 in data set [1] is > 50 µM. For the same molecule, the “SI (Selectivity Index, CC50/IC50)” value in data set [2] is recorded as 1.0. In addition, the half-inhibitory concentration (IC50) in data set [2] (setting [3]) was > 50 µM.
For the molecule `COc1cc2cc3c(c(-c4ccnc5c(F)cccc45)c2cc1OC)C(=O)OC3` [Example 137, 9-(8-fluoroquinolin-4-yl)-6,7-dimethoxynaphtho[2,3-c]furan-1(3H)-one], the CC50 in data set [1] was > 50 µM. The “SI (Selectivity Index, CC50/IC50)” value in data set [2] is reported as 1.0. Also, the IC50 in data set [2] (setting [3]) was > 50 µM.
For the molecule `COc1cc2cc3c(c(-c4cc5c(cc4OC)OCO5)c2cc1OC)C(=O)OC3` [Example 88, 6,7-dimethoxy-9-(6-methoxybenzo[d][1,3]dioxol-5-yl)naphtho[2,3-c]furan-1(3H)-one], in data set [1], the CC50 is > 50 µM. For the same molecule, the “SI (Selectivity Index, CC50/IC50)” value in data set [2] stood at 3.00. Further, the IC50 in data set [2] (setting [3]) was found to be 16.6 µM.
The matching figures for `CCN(CC)CCNc1c2c(cc3cc(OC)c(OC)cc13)COC2=O` [Example 6, 9-((2-(diethylamino)ethyl)amino)-6,7-dimethoxynaphtho[2,3-c]furan-1(3H)-one]: > 50 µM, 1.00 and > 50 µM.
Take `CCN(CC1CCCO1)c1ccc(-c2c3c(cc4cc(OC)c(OC)cc24)COC3=O)cn1` (stereo not drawn) [Example 193, 9-(6-(ethyl((tetrahydrofuran-2-yl)methyl)amino)pyridin-3-yl)-6,7-dimethoxynaphtho[2,3-c]furan-1(3H)-one]: the CC50 in data set [1] was > 50 µM. Besides, in data set [2], the “SI (Selectivity Index, CC50/IC50)” value amounted to 6.46. Further, the IC50 in data set [2] (setting [3]) is 7.74 µM.
In the same order, the values of `COc1cc2cc3c(c(-c4cccc(N5CCCCC5)c4)c2cc1OC)C(=O)OC3` [Example 243, 6,7-dimethoxy-9-(3-(piperidin-1-yl)phenyl)naphtho[2,3-c]furan-1(3H)-one] are > 50 µM, 3.26 and 15.3 µM.
The matching figures for `COc1cc2cc3c(c(-c4ccc(Cl)nc4)c2cc1OC)C(=O)OC3` [Example 185, 9-(6-chloropyridin-3-yl)-6,7-dimethoxynaphtho[2,3-c]furan-1(3H)-one]: > 50 µM, 149.26 and 0.33 µM.
With `COc1cc2cc3c(c(-c4cnc(N5CCC[C@H]5C(=O)O)nc4)c2cc1OC)C(=O)OC3` [Example 61, (5-(6,7-dimethoxy-3-oxo-1,3-dihydronaphtho[2,3-c]furan-4-yl)pyrimidin-2-yl)-L-proline], the CC50 in data set [1] was > 50 µM. The “SI (Selectivity Index, CC50/IC50)” value in data set [2] is on record as 1.00. Moreover, the IC50 in data set [2] (setting [3]) was > 50 µM.
As for `CCCCN(CC)c1ncc(-c2c3c(cc4cc(OC)c(OC)cc24)COC3=O)cn1` [Example 66, 9-(2-(butyl(ethyl)amino)pyrimidin-5-yl)-6,7-dimethoxynaphtho[2,3-c]furan-1(3H)-one], in data set [1], the CC50 is > 50 µM. Besides, the “SI (Selectivity Index, CC50/IC50)” value in data set [2] is given as 19.03. The IC50 in data set [2] (setting [3]) turned out to be 2.63 µM.
The matching figures for `CCN(CCOC)c1ccc(-c2c3c(cc4cc(OC)c(OC)cc24)COC3=O)cc1` [Example 253, 9-(4-(ethyl(2-methoxyethyl)amino)phenyl)-6,7-dimethoxynaphtho[2,3-c]furan-1(3H)-one]: > 50 µM, 20.54 and 2.43 µM.
Turning to `COc1cc2cc3c(c(-c4ccc5occc5c4)c2cc1OC)C(=O)OC3` [Example 52, 9-(benzofuran-5-yl)-6,7-dimethoxynaphtho[2,3-c]furan-1(3H)-one], the CC50 in data set [1] was > 50 µM. In data set [2], the “SI (Selectivity Index, CC50/IC50)” value was 35.13. For the same molecule, the IC50 in data set [2] (setting [3]) stood at 1.42 µM.
Consider `COc1cc2cc3c(c(-c4ccc(N(C)c5nn(C)cc5C#N)nc4)c2cc1OC)C(=O)OC3.Cl` [Example 241, 3-((5-(6,7-dimethoxy-3-oxo-1,3-dihydronaphtho[2,3-c]furan-4-yl)pyridin-2-yl)(methyl)amino)-1-methyl-1H-pyrazol-4-carbonitrile], for which the CC50 in data set [1] was > 50 µM. The “SI (Selectivity Index, CC50/IC50)” value in data set [2] stood at 1.00. For the same molecule, the IC50 in data set [2] (setting [4]) was > 50 µM.
Take `CCCCCCCCCCN(CCCCCCCCCC)c1ncc(-c2c3c(cc4cc(OC)c(OC)cc24)COC3=O)cn1.Cl` [Example 87, 9-(2-(didecylamino)pyrimidin-5-yl)-6,7-dimethoxynaphtho[2,3-c]furan-1(3H)-one hydrochloride]: the CC50 in data set [1] is > 50 µM. For the same molecule, the “SI (Selectivity Index, CC50/IC50)” value in data set [2] was 1.00. The IC50 in data set [2] (setting [4]) was > 50 µM.
For the molecule `COc1cc2c(OC)c3c(c(-c4ccc5c(c4)OC(F)(F)O5)c2cc1OC)COC3=O` [Example 259, 4-(2,2-difluorobenzo[d][1,3]dioxol-5-yl)-6,7,9-trimethoxynaphtho[2,3-c]furan-1(3H)-one], in data set [1], the CC50 was > 50 µM. Moreover, in data set [2], the “SI (Selectivity Index, CC50/IC50)” value stood at 1.00. The IC50 in data set [2] (setting [3]) was > 50 µM.
With `COc1cc2cc3c(c(-c4cncc(OCCN(C)C)c4)c2cc1OC)C(=O)OC3.Cl` [Example 187, 9-(5-(2-(dimethylamino)ethoxy)pyridin-3-yl)-6,7-dimethoxynaphtho[2,3-c]furan-1(3H)-one], the CC50 in data set [1] was > 50 µM. The “SI (Selectivity Index, CC50/IC50)” value in data set [2] came to 1.0. The IC50 in data set [2] (setting [4]) was > 50 µM.
On to `COc1cc2cc3c(c(-c4ccc(N5CCOCC5)nc4)c2cc1OC)C(=O)OC3` [Example 124, 6,7-dimethoxy-9-(6-morpholinopyridin-3-yl)naphtho[2,3-c]furan-1(3H)-one], for which the CC50 in data set [1] was > 50 µM. In data set [2], the “SI (Selectivity Index, CC50/IC50)” value was determined as 176.18. In data set [2] (setting [3]), the concentration for half-maximal inhibition (IC50) was found to be 0.28 µM.
As for `COc1cc2cc3c(c(-c4ccc(N5CCCC(c6cccc(C)c6)C5)nc4)c2cc1OC)C(=O)OC3` (stereo not drawn) [Example 202, 6,7-dimethoxy-9-(6-(3-(m-tolyl)piperidin-1-yl)pyridin-3-yl)naphtho[2,3-c]furan-1(3H)-one], the CC50 in data set [1] turned out to be 38.4 µM. The “SI (Selectivity Index, CC50/IC50)” value in data set [2] came to 38.01. Further, in data set [2] (setting [3]), the IC50 is 1.01 µM.
